# Earlier results in patent publication US8648203B2 (priority 2005, dated 2014).
# Assays:
# [1] = tested on: potato Phycophthora infestans; settings: field tests
# mites = settings: repeated treatments in the field
smiles,measurement,setting,value
"O=[N+]([O-])c1cc(C(F)(F)F)c(Cl)c([N+](=O)[O-])c1Nc1ncc(C(F)(F)F)cc1Cl [fluazinam, 3-chloro-N-(3-chloro-5-trifluoromethyl-2-pyridyl)-α,α,α-trifluoro-2,6-dinitro-p-toluidine]",activity against potato Phycophthora infestans,[1],excellent activity
same,population of mites,mites,significantly reduce the population of mites
